Assay [1] has as its target T1, DOCK1 (DHR-2 domain) (Homo sapiens, UniProt Q14185).
T1 construct: polypeptide fragments corresponding to the DHR-2 domain of DOCK1 or DOCK2 from mice and humans; Histidine-SUMO (N); made in house; host or cells: E. coli Arctic express (DE3)
T1 sequence (Q14185 1207-1617 limits assumed): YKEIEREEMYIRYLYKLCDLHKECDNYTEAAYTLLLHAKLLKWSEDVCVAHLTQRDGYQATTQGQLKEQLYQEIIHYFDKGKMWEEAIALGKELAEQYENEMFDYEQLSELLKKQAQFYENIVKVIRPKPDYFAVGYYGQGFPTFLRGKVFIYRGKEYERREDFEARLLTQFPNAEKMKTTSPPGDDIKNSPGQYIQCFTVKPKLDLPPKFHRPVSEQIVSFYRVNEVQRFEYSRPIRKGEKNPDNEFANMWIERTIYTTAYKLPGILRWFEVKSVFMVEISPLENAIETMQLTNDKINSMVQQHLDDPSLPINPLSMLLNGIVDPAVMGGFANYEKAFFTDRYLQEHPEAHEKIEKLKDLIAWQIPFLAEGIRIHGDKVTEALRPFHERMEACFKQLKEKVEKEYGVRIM
Briefly: In vitro GEF assay: Rac activation by DOCK1 DHR-2 domain. The settings on record: in words; for selective inhibitory activity against DOCK1 versus DOCK2: GEF assay DOCK1 vs DOCK2 DHR-2 domain. The format is biochemical, mice and humans. The procedure: DOCK1 and DOCK2, i.e., DOCK-A subfamily members, both activate Rac by catalyzing the GTP-GDP exchange reaction for Rac via their DHR-2 domains. Therefore, in this Pharmacological Test, the inhibitory effect of the compounds of the present invention on Rac activation by DOCK1 or DOCK2 was assessed in an in vitro GEF assay by using polypeptide fragments corresponding to the DHR-2 domain of DOCK1 or DOCK2 from mice and humans. The in vitro GEF assay was performed using a labeled GTP (Bodipy-FL-GTP, Invitrogen), which has a property of increasing the fluorescence intensity when bound to Rac.
The polypeptide fragments corresponding to the DHR-2 domain of DOCK1 or DOCK2 were prepared by expression in E. coli Arctic express (DE3) cells as N-terminal. Histidine-SUMO tag-fused recombinant proteins, followed by purification by affinity column chromatography on nickel-NTA columns.
Rac was prepared by expression in E. coli BL21 (DE3) cells as an N-terminal GST tag-fused recombinant protein, followed by purification by affinity column chromatography on glutathione-Sepharose columns.
Each of the polypeptide fragments corresponding to the DHR-2 domain of DOCK1 or DOCK2, and a predetermined concentration of each test compound (the compounds of the present invention: 33 types of compounds; and comparative compound: TBOPP) dissolved in DMSO were incubated in a reaction solution A (pH 7.0), which contained 20 mM of MES-NaOH, 150 mM of NaCl, 10 mM of MgCl2, and 20 μM of GDP for 20 minutes at room temperature while being shielded from light to thus prepare GEF pretreated products. The final concentration of DMSO was adjusted to 1 mass % in all of the test samples. For a control test, a GEF pretreated product (control) was prepared by incubation in the same manner using DMSO with no test compounds, instead of the DMSO used above in which each test compound was dissolved.
Separately, Rac was added to the reaction solution A (pH 7.0) to a concentration of 15 μM, and was allowed to stand on for 30 min to form a GDP-Rac complex. Bodipy-FL-GTP was added to a concentration of 3.6 μM to 100 μL of the reaction solution A that contained the thus-prepared GDP-Rac complex, and equilibrated at 30° C. for 2 minutes. After equilibration, 50 μL of the GEF pretreated product prepared as described above was added and reacted at 30° C.
Changes in fluorescence intensity of Bodipy-FL-GTP in the reaction solutions were monitored using an EnSpire spectrofluorometer (Perkin Elmer) (excitation wavelength: 488 nm, fluorescence wavelength: 514 nm). The measured values were corrected so that the fluorescence intensity at the beginning of the reaction (0 sec) was 0. Then, an approximate curve (hyperbola) was obtained by plotting the calculated correction values on the y-axis and the time (t) on the x-axis using GraphPad Prism5 (GraphPad software), and the slope at t=0 to 10 seconds was defined as the initial velocity of the guanine nucleotide exchange reaction. The IC50 value was calculated taking the initial reaction velocity of the control, to which only a solvent (DMSO) was added, as 100%.
Based on the obtained results, columns A and B of FIG. 1, FIG. 2, FIG. 3-1, and FIG. 3-2 show the results evaluating the inhibitory effect on Rac activation by DOCK1 (DHR-2 domain) (IC50 value), and DOCK1-selective inhibitory effect (DOCK1/DOCK2 selectivity) of each test compound. The inhibitory effect on Rac activation by DOCK1 (DHR-2 domain) (IC50 value) was determined from the reaction inhibition curve plotted using values of Rac activation by the DOCK1 DHR-2 domain in the presence of various concentrations of the test compounds, taking the values of the control as 100%. […]

In assay [2] the test system is mouse lung carcinoma cell line (3LL cells). Briefly: Cell invasion inhibition assay (Matrigel invasion chamber). Type of assay: cell-based. The settings on record: in words. Here is the method:
In this Pharmacological Test, the inhibitory effect of each test compound on cell invasion response was evaluated using a mouse lung carcinoma cell line (3LL cells), a mouse pancreatic cancer cell line (PANC02 cells), and a human breast cancer cell line (MDA-MB-157 cells). Of these, the mouse lung carcinoma cell line (3LL) is a cancer cell line with mutant Ras (K-Ras (G12C)), and the human breast cancer cell line (MDA-MB-157) is a cancer cell line with mutant Rac (Rac1 (P29S)). The experiments were performed in BD BioCoat Matrigel invasion chambers (BD Biosciences).
Specifically, an upper chamber with a Matrigel-coated membrane insert (8 μm pores) at the bottom was equilibrated with DMEM (serum-free medium) for 120 minutes. Thereafter, 300 μL of a suspension of a cancer cell line in DMEM (serum-free) was placed in the upper chamber while 500 μL of DMEM (with 10 mass % FCS) was placed in the lower chamber. Each test compound dissolved in DMSO at a predetermined concentration was added to both the culture media in the upper and lower chambers. As a control, DMSO alone was added to both the culture media in the upper and lower chambers. In all of the experiments, the final DMSO concentration in the culture media was adjusted to 0.2 mass %.
The resulting products were cultured under 5% CO2 at 37° C. for 22 hours (3LL and PANC02 cells) or 48 hours (MDA-MB-157 cells). Then, the upper chamber was removed, and the culture medium was removed. Thereafter, non-invading cells remaining in the upper chamber were removed using a cotton swab, and the cells remaining outside the bottom of the upper chamber (cells that had invaded into the Matrigel, and passed through the membrane insert) were stained with Diff-Quick (Sysmex). After staining, the membrane inserts with Matrigel were cut out using a scalpel to prepare slides, and the number of invading cells was counted under an optical microscope.
The results were evaluated based on percent cell invasion (%: Invasion) and percent inhibition (%: Inhibition). The percent cell invasion was obtained by converting the number of invading cells in the presence of each test compound into a percentage, taking the number of invading cells in the control test, in which DMSO was added alone, as 100%; and the percent inhibition was obtained by deducting the percent cell invasion from 100.

Each structure is given as a SMILES string.

For the compound `COC(=O)c1cc(S(=O)(=O)N2CCCC2)cn1CC(O)c1ccc(-c2cccc(C(F)(F)F)c2)cc1` (stereo not shown) [HS-6, methyl 1-(2-hydroxy-2-(3′-(trifluoromethyl)-[1,1′-biphenyl]-4-yl)ethyl)-4-(pyrrolidin-1-yl-sulfonyl)-1H-pyrrole-2-carboxylate], the “selective inhibitory activity against DOCK1 versus DOCK2” value in assay [1] is given as “higher selective inhibitory activity against DOCK1 than against DOCK2”. For the same compound, in assay [2], the “percent cell invasion inhibition compared with TBOPP” value (shortened to “percent cell invasion inhibition”) is given as “higher percent cell invasion inhibition than TBOPP”.

With `CC(=O)c1cc(S(=O)(=O)N2CCCC2)cn1CC(=O)c1ccc(-c2cccc(C(F)(F)F)c2)cc1` [HS-16, 2-(2-acetyl-4-(pyrrolidin-1-yl-sulfonyl)-1H-pyrrol-1-yl)-1-(3′-(trifluoromethyl)-[1,1′-biphenyl]-4-yl)ethane-1-one], the “selective inhibitory activity against DOCK1 versus DOCK2” value in assay [1] is “higher selective inhibitory activity against DOCK1 than against DOCK2”. Moreover, the “percent cell invasion inhibition” value in assay [2] is listed as “higher percent cell invasion inhibition than TBOPP”.

In the case of `Cc1cc(-c2ccc(C(=O)Cn3cc(S(=O)(=O)N4CCCC4)ccc3=O)cc2)ccc1N(C)C` [KS-16, 1-(2-(4′-(dimethylamino)-3′-methyl-[1,1′-biphenyl]-4-yl)-2-oxoethyl)-5-(pyrrolidin-1-yl-sulfonyl)pyridin-2(1H)-one], the “percent cell invasion inhibition” value in assay [2] was “higher percent cell invasion inhibition than TBOPP”.

As for `O=C(Cn1cc(S(=O)(=O)N2CCCC2)ccc1=O)c1ccc(-c2ccc3cccnc3c2)cc1` [KS-18, 1-(2-oxo-2-(4-(quinolin-7-yl)phenyl)ethyl)-5-(pyrrolidin-1-yl-sulfonyl)pyridin-2(1H)-one], the “percent cell invasion inhibition” value in assay [2] is recorded as “higher percent cell invasion inhibition than TBOPP”.

Regarding `O=C(Cn1cc(S(=O)(=O)N2CCCC2)ccc1=O)c1ccc(-c2cccc(SC(F)(F)F)c2)cc1` [KS-21, 1-(2-oxo-2-(3′-((trifluoromethyl)thio)-[1,1′-biphenyl]-4-yl)ethyl)-5-(pyrrolidin-1-yl-sulfonyl)pyridin-2(1H)-one], the “percent cell invasion inhibition” value in assay [2] is reported as “higher percent cell invasion inhibition than TBOPP”.

Regarding `O=C(Cn1cc(S(=O)(=O)N2CCCC2)ccc1=O)c1ccc(-c2cccc(C(F)(F)F)n2)cc1` [KS-22, 1-(2-oxo-2-(4-(6-(trifluoromethyl)pyridin-2-yl)phenyl)ethyl)-5-(pyrrolidin-1-yl-sulfonyl)pyridin-2(1H)-one], the “percent cell invasion inhibition” value in assay [2] is on record as “higher percent cell invasion inhibition than TBOPP”.

As for `O=C(Cn1cc(S(=O)(=O)N2CCCC2)ccc1=O)c1ccc(-c2ccc3ncccc3c2)cc1` [KS-23, 1-(2-oxo-2-(4-(quinolin-6-yl)phenyl)ethyl)-5-(pyrrolidin-1-yl-sulfonyl)pyridin-2(1H)-one], the “percent cell invasion inhibition” value in assay [2] is listed as “higher percent cell invasion inhibition than TBOPP”.

Regarding `O=C(Cn1cc(S(=O)(=O)N2CCC(c3ccc(-c4cc(F)c(F)c(F)c4)cc3)CC2)ccc1=O)c1ccc(-c2cc(F)c(F)c(F)c2)cc1` [KS-59, 1-(2-oxo-2-(3′,4′,5′-trifluoro-[1,1′-biphenyl]-4-yl)ethyl)-5-((4-(3′,4′,5′-trifluoro-[1,1′-biphenyl]-4-yl)piperidin-1-yl)sulfonyl)pyridin-2(1H)-one], in assay [1] (GEF assay), the “DOCK1-inhibiting activity compared with TBOPP” value was “higher than those of TBOPP” and the “selective inhibitory activity against DOCK1 compared to TBOPP” value is “higher than those of TBOPP”. Also, the “selective inhibitory activity against DOCK1 versus DOCK2” value in assay [1] is “higher selective inhibitory activity against DOCK1 than against DOCK2”. In addition, in assay [2], the “percent cell invasion inhibition” value is “higher than those of TBOPP”.

On to `Nc1cc(S(=O)(=O)N2CCCC2)cn(CC(=O)c2ccc(-c3cccc(C(F)(F)F)c3)cc2)c1=O` [RT-13, 3-amino-1-(2-oxo-2-(3′-(trifluoromethyl)-[1,1′-biphenyl]-4-yl)ethyl)-5-(pyrrolidin-1-yl-sulfonyl)pyridin-2(1H)-one], for which, in assay [2], the “percent cell invasion inhibition” value is recorded as “higher percent cell invasion inhibition than TBOPP”.

On to `O=C(Cn1cc(S(=O)(=O)N2CCCC2)cc1-c1ncco1)c1ccc(-c2cccc(C(F)(F)F)c2)cc1` [RT-58, 2-(2-(oxazol-2-yl)-4-(pyrrolidin-1-yl-sulfonyl)-1H-pyrrol-1-yl)-1-(3′-(trifluoromethyl)-[1,1′-biphenyl]-4-yl)ethan-1-one], for which, in assay [1], the “selective inhibitory activity against DOCK1 versus DOCK2” value is on record as “higher selective inhibitory activity against DOCK1 than against DOCK2”. Further, in assay [2], the “percent cell invasion inhibition” value is “higher percent cell invasion inhibition than TBOPP”.

The values above are taken from US20220017486A1, “DOCK1-INHIBITING COMPOUND AND USE THEREOF” (KYUSHU UNIVERSITY, NATIONAL UNIVERSITY CORPORATION, priority 2018, published 2022).
